Legend:
NK1 receptor = molecular target: T1, NK1 receptor (Homo sapiens, UniProt P25103); assay: NK1 receptor mediated intracellular [Ca2+] mobilization in U251 MG cells using FLIPR; format: cell-based; settings: antagonist potency against Substance P (EC80), normalized to 100 nM Aprepitant, read-out: U251MG (FLIPR pIC50) (converted)
T1 construct: Measurement of NK1 Receptor Mediated Intracellular [Ca^2+]; Mobilization in U251 MG Cells Using FLIPR; endogenous in cells; host or cells: U251 MG cells
T1 sequence (P25103 whole entry): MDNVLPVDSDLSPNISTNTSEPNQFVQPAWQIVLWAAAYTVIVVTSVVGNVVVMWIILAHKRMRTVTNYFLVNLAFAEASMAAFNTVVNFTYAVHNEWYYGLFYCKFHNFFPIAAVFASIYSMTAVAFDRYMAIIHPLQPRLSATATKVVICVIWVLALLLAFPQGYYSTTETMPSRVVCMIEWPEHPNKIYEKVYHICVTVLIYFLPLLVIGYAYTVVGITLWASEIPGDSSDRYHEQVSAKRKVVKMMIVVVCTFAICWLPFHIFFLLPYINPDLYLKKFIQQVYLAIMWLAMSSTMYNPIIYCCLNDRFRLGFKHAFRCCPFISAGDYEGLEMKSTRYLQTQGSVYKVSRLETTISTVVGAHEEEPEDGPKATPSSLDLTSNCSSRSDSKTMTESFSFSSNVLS
Experimental: Measurement of NK1 Receptor Mediated Intracellular [Ca^2+] Mobilization in U251 MG Cells Using FLIPR
U251 MG cells were seeded into black walled clear-bottom 384-well plates (Greiner Bio-One GmbH, Frickenhausen, Germany) at a density of 15,000 cells/well in 50 μl culture medium and cultured overnight in a 37° C. 5% CO2 incubator. The cells were then loaded with the calcium sensitive dye Fluo-4 (Invitrogen) at 1 μM in buffer, containing 0.04%
Pluronic F-127 (Sigma-Aldrich), and 2.5 mM probenecid (Sigma-Aldrich) for 60 min in a humidified atmosphere of 5% CO2. Thereafter, cells were washed three times in washing buffer containing 20 mM HEPES and 2.5 mM probenecid pH 7.3. Serial dilutions of test compounds in assay buffer containing 2% dimethyl sulfoxide (final concentration in the cell plate is 0.5% DMSO) and/or agonist were then automatically pipetted into each test well, and the peak fluorescence intensity was recorded (lex, 488 nm; lem, 540 nm) by the FLIPR instrument (Molecular Devices) for approximately 5 min. To measure antagonist potency, cell plates were first incubated with the test compound and intracellular fluorescence recorded for 5 minutes to check a potential agonist effect of the test compound. Cell plates were quickly removed from the FLIPR instrument and incubated for additional 10 minutes at 37° C. before being moved back to the FLIPR instrument for Substance P (EC80) addition. The response was measured as the peak relative fluorescence change after agonist addition.
The IC50 value is defined as the molar concentration of a test compound that produces a response midway between the fitted top and the fitted bottom. pIC50=−log IC50
Formula is listed as follows: Fit(% Effect calculated)=(A+((B−A)/(1+((C/X)^D)))) • A: bottom value • B: top value • C: […] • D: Hill slope coefficient
Ref: Sullivan E, Tucker E M, and Dale I L. Measurement of [Ca^2+] using the Fluorometric Imaging Plate Reader (FLIPR). Methods Mol Biol 114:125-133, 1999.
Compounds of the present invention were tested according to example 120.

[1] = Hepatic intrinsic clearance following incubation in human liver microsomes; format: in vitro ADME; settings: NADPH regenerating system, 0-30 min, 37 °C
Experimental: Hepatic Extraction Ratio from Hepatic Intrinsic Clearance Following Incubation in Human Liver Microsomes
The general procedure consists of an automated incubation system and LC-MS/MS analysis with human liver microsomes. Human liver microsomes are thawed rapidly in a waterbath at 37° C. and kept on ice until use. The human liver microsomes are diluted with 50 mM potassium phosphate buffer pH 7.4 to a protein concentration of 0.55 mg/mL. Test compounds and positive controls (Verapamil and Dextromethorphan, positive controls for CYP3A4 for CYP2D6 isoforms, respectively) are dissolved in methanol (or other appropriate solvent, if necessary) in order to obtain a 5 mM solution which is further diluted to the concentration of 50 μM. The stock solutions are prepared immediately before the test.
5 μL of 50 μM test compounds and controls are added to 445 μL-of the 0.55 mg/mL microsomes solution and the incubation mixture are pre-warmed at 37° C. for 5 minutes.
The incubation reactions are initiated by adding 50 μL of pre-warmed NADPH regenerating system to the incubation mixtures. 50 μL-aliquots will be taken from the incubation mixtures at: 0, 3, 6, 9, 15 and 30 minutes and the reactions are stopped by adding 100 μL of ACN containing Rolipram, used as generic Internal Standard (1S). Samples are then diluted with 120 μL of Milli-Q water and centrifuged at 3000 rpm for 10 minutes, prior the LC-MS/MS analysis.
The integrated peak areas for test compounds at the selected time points are divided by the respective peak areas of the IS and the percent of parent remaining is calculated by normalizing the peak area ratio of parent to IS at 0 min. Observed rate constant (kobs) for parent degradation is calculated by determining the slope of the line of the graph of the natural log of percentage parent remaining versus time of incubation. From the rate of depletion (min-1) and volume of the incubation (mL), clearance is estimated. This is scaled for the protein in the incubation relative to that in the intact liver, for all species (mL/min/g liver).
Values for the Human in vitro Clint are expressed as mL/min/g liver.
Assuming a liver weight of 25.7 g/kg and a liver blood flow of 20.7 mL/min/kg, the hepatic extraction ratio, Eh, can be derived from the Human in vitro Clint:
E.g. a Human in vitro Clint of 2.4 mL/min/g liver corresponds to a hepatic extraction ratio of 75%.
Some compounds of the present invention were tested according to example 121.

IC50 (NK1 receptor)	Human in vitro Clint (mL/min/g liver) [1]	Structure (SMILES)
0.0933 nM	0.4 mL/min/g liver	Cc1ccccc1C1C2CC3(CCN(C)CC3)C(=O)N2CCN1C(=O)N(C)Cc1cc(C(F)(F)F)cc(C(F)(F)F)c1 (single isomer, unassigned) [Compound 47, N-{[3,5-bis(trifluoromethyl)phenyl]methyl}-N,1-dimethyl-4′-(2-methylphenyl)-1′-oxo-hexahydro-1′H-spiro[piperidine-4,2′-pyrrolo[1,2-a]piperazine]-5′-carboxamide]
0.347 nM	1.9 mL/min/g liver	Cc1ccccc1C1C2CC(CO)CN2CCN1C(=O)N(C)Cc1cc(C(F)(F)F)cc(C(F)(F)F)c1 (single isomer, unassigned) [Compound 49, N-{[3,5-bis(trifluoromethyl)phenyl]methyl}-7-(hydroxymethyl)-N-methyl-1-(2-methylphenyl)-octahydropyrrolo[1,2-a]piperazine-2-carboxamide]
0.224 nM	2.9 mL/min/g liver	Cc1ccccc1C1C2CC(CN3CCOCC3)C(=O)N2CCN1C(=O)N(C)Cc1cc(C(F)(F)F)cc(C(F)(F)F)c1 (single isomer, unassigned) [Compound 50]
0.468 nM	–	Cc1ccccc1[C@H]1[C@@H]2CC(CCO)(CCO)C(=O)N2CCN1C(=O)N(C)Cc1cccc(C(F)(F)F)c1 [Compound 80, (1S,8aS)-7,7-bis(2-hydroxyethyl)-N-methyl-6-oxo-1-o-tolyl-N-(3-(trifluoromethyl)benzyl)hexahydropyrrolo[1,2-a]pyrazine-2(1H)-carboxamide]
0.204 nM	–	Cc1ccccc1[C@H]1[C@@H]2CC(CCO)(CCO)C(=O)N2CCN1C(=O)N(C)[C@@H](CO)c1cc(C(F)(F)F)cc(C(F)(F)F)c1 [Compound 87, (1S,8aS)-N-((R)-1-(3,5-bis(trifluoromethyl)phenyl)-2-hydroxyethyl)-7,7-bis(2-hydroxyethyl)-N-methyl-6-oxo-1-o-tolylhexahydropyrrolo[1,2-a]pyrazine-2(1H)-carboxamide]

The next lines start with the compound.

Structure (SMILES)	IC50 (NK1 receptor)	Human in vitro Clint (mL/min/g liver) [1]
Cc1ccccc1C1C2CC3(CCN(C)CC3)C(=O)N2CCN1C(=O)N(C)Cc1cc(C(F)(F)F)cc(C(F)(F)F)c1 (racemic) [Compound 45, N-{[3,5-bis(trifluoromethyl)phenyl]methyl}-N,1-dimethyl-4′-(2-methylphenyl)-1′-oxo-hexahydro-1′H-spiro[piperidine-4,2′-pyrrolo[1,2-a]piperazine]-5′-carboxamide]	0.166 nM	1.9 mL/min/g liver
Cc1ccccc1C1C2CCC(=O)N2CCN1C(=O)N(C)Cc1cc(F)cc(C(F)(F)F)c1 (single isomer, unassigned) [Compound 3, N-{[3-fluoro-5-(trifluoromethyl)phenyl]methyl}-N-methyl-1-(2-methylphenyl)-6-oxo-octahydropyrrolo[1,2-a]piperazine-2-carboxamide]	1.38 nM	9.5 mL/min/g liver
Cc1ccccc1C1C2CCC(=O)N2CCN1C(=O)N(C)Cc1cc(C(F)(F)F)cc(C(F)(F)F)c1 (single isomer, unassigned) [Compound 18, N-{[3,5-bis(trifluoromethyl)phenyl]methyl}-N-methyl-1-(2-methylphenyl)-6-oxo-octahydropyrrolo[1,2-a]piperazine-2-carboxamide]	0.603 nM	2.8 mL/min/g liver
Cc1ccccc1C1C2CC(CO)C(=O)N2CCN1C(=O)N(C)Cc1cc(C(F)(F)F)cc(C(F)(F)F)c1 (single isomer, unassigned) [Compound 22, N-{[3,5-bis(trifluoromethyl)phenyl]methyl}-7-(hydroxymethyl)-N-methyl-1-(2-methylphenyl)-6-oxo-octahydropyrrolo[1,2-a]piperazine-2-carboxamide]	0.0513 nM	0.8 mL/min/g liver
Cc1ccccc1C1C2CC(C)(C(=O)N(C)C)C(=O)N2CCN1C(=O)N(C)Cc1cc(C(F)(F)F)cc(C(F)(F)F)c1 (single isomer, unassigned) [Compound 26, 2-N-{[3,5-bis(trifluoromethyl)phenyl]methyl}-2-N,7-N,7-N,7-tetramethyl-1-(2-methylphenyl)-6-oxo-octahydropyrrolo[1,2-a]piperazine-2,7-dicarboxamide]	0.661 nM	1.0 mL/min/g liver
Cc1ccccc1C1C2CC(CN3CCOCC3)C(=O)N2CCN1C(=O)N(C)Cc1cc(C(F)(F)F)cc(C(F)(F)F)c1 (single isomer, unassigned) [Compound 29, N-{[3,5-bis(trifluoromethyl)phenyl]methyl}-N-methyl-1-(2-methylphenyl)-7-(morpholin-4-ylmethyl)-6-oxo-octahydropyrrolo[1,2-a]piperazine-2-carboxamide]	0.398 nM	6.4 mL/min/g liver
Cc1ccccc1C1C2CC(CN3CCCC3)C(=O)N2CCN1C(=O)N(C)Cc1cc(C(F)(F)F)cc(C(F)(F)F)c1 (single isomer, unassigned) [Compound 30, N-{[3,5-bis(trifluoromethyl)phenyl]methyl}-N-methyl-1-(2-methylphenyl)-6-oxo-7-(pyrrolidin-1-ylmethyl)-octahydropyrrolo[1,2-a]piperazine-2-carboxamide]	0.38 nM	2.4 mL/min/g liver
Cc1ccccc1C1C2CC(CN3CCOCC3)C(=O)N2CCN1C(=O)N(C)Cc1cc(C(F)(F)F)cc(C(F)(F)F)c1 (single isomer, unassigned) [Compound 41]	0.224 nM	2.9 mL/min/g liver
Cc1ccccc1C1C2CC(CCO)(CCO)C(=O)N2CCN1C(=O)N(C)Cc1cc(C(F)(F)F)cc(C(F)(F)F)c1 (single isomer, unassigned) [Compound 43, N-{[3,5-bis(trifluoromethyl)phenyl]methyl}-7,7-bis(2-hydroxyethyl)-N-methyl-1-(2-methylphenyl)-6-oxo-octahydropyrrolo[1,2-a]piperazine-2-carboxamide]	0.525 nM	3.7 mL/min/g liver
Cc1ccccc1C1C2CC(CCO)CN2CCN1C(=O)N(C)C(CCO)c1cc(C(F)(F)F)cc(C(F)(F)F)c1 (stereo not shown) [Compound 36, N-{1-[3,5-bis(trifluoromethyl)phenyl]-3-hydroxypropyl}-7-(2-hydroxyethyl)-N-methyl-1-(2-methylphenyl)-octahydropyrrolo[1,2-a]piperazine-2-carboxamide]	0.724 nM	–
CC(=O)N1CCN(CC2CC3C(c4ccccc4C)N(C(=O)N(C)Cc4cc(C(F)(F)F)cc(C(F)(F)F)c4)CCN3C2=O)CC1 (stereo not shown) [Compound 37, 7-[(4-acetylpiperazin-1-yl)methyl]-N-{[3,5-bis(trifluoromethyl)phenyl]methyl}-N-methyl-1-(2-methylphenyl)-6-oxo-octahydropyrrolo[1,2-a]piperazine-2-carboxamide]	0.309 nM	–

Source: patent US9181259B2 (LEO PHARMA A/S, priority 2012, dated 2015)
